In patent publication US20230257372A1 (CHONG KUN DANG PHARMACEUTICAL CORP., priority 2020, published 2023):
pIC50: −log10 of the molar value. Read-outs that look alike come from different tables or passages of the source.

Tests used:
human recombinant HDAC1 = molecular target: T1, human recombinant HDAC1 (Homo sapiens, UniProt Q13547); test: HDAC1 enzyme activity inhibition (HDAC Fluorimetric Drug Discovery Kit); type: biochemical; conditions: read-out: HDAC1
T1 construct: purchased Enzo Life Science, Inc. BML-SE456
T1 sequence (Q13547 whole entry): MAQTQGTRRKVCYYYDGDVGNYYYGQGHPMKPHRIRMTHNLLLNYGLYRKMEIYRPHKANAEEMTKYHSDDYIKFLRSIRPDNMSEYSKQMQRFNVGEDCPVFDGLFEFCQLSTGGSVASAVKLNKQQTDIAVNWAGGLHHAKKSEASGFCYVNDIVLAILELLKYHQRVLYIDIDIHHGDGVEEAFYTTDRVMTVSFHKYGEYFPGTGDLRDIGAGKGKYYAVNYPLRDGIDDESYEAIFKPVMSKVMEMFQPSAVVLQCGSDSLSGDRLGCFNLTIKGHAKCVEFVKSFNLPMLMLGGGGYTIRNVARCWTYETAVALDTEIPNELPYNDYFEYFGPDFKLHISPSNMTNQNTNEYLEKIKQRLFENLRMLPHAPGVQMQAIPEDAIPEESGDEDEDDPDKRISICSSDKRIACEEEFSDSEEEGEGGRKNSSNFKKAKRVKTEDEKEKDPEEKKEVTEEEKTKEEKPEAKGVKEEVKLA
Procedure, shortened: (§1)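 Each isoform is run in the same format: compound dilutions (5-fold steps), 10 μM substrate, […] enzyme, one hour at 30° C, then 30 minutes with developer before fluorescence readout.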

human recombinant HDAC6 = molecular target: T2, human recombinant HDAC6 (Homo sapiens, UniProt Q9UBN7); test: HDAC6 enzyme activity inhibition (HDAC Fluorimetric Drug Discovery Kit); type: biochemical
T2 construct: purchased Calbiochem Inc. 382180
T2 sequence (Q9UBN7 1-1215): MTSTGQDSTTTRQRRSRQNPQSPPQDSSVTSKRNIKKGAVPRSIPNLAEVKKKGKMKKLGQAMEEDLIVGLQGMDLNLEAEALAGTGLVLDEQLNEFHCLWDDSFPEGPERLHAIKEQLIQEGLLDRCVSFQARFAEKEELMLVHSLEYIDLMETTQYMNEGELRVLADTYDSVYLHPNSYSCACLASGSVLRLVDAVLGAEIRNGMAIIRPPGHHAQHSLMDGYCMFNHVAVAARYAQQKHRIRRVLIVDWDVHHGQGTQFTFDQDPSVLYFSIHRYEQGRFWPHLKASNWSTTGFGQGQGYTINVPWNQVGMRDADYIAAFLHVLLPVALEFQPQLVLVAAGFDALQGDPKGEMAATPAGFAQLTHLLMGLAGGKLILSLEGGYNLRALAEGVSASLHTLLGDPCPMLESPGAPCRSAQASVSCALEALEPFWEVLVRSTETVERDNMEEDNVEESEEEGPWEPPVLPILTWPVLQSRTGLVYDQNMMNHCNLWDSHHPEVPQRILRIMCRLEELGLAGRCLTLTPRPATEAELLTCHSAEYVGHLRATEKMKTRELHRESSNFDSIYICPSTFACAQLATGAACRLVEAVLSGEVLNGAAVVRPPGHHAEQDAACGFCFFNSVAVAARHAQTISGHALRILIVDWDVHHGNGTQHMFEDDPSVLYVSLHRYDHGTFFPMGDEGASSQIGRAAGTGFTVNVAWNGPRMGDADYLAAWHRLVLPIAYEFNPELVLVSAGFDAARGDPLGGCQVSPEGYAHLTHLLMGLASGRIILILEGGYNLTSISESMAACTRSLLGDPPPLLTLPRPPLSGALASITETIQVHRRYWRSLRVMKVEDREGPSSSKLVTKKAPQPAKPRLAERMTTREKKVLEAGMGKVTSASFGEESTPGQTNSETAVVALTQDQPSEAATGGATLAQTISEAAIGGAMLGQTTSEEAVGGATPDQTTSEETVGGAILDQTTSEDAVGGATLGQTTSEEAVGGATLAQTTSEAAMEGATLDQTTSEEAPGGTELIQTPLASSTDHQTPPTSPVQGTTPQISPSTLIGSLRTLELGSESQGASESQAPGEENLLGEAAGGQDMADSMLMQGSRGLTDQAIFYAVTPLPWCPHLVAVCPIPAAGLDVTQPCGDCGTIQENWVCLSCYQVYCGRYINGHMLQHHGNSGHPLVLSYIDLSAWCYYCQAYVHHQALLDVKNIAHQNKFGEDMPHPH
Procedure, shortened: as §1

[1] = tested on: hippocampal neurons from a Sprague-Dawley (SD) rat fetus; test: Effect of HDAC6-specific inhibitor on axonal transport of mitochondria in amyloid-beta treated neurons; type: cell-based; conditions: transport velocity of mitochondria in neuronal axon after normalization; vehicle = 100%, amyloid beta treatment group = 0%; compound treatment for three hours
Description: On the 17th to 18th days (E17-18) of insemination, the hippocampal neurons from a Sprague-Dawley (SD) rat fetus were cultured in a culture container for imaging, which had been coated with extracellular matrix, and were treated with amyloid-beta protein fragments at a concentration of […]. In 24 hours later, the neurons were treated with the compound on the 8th day of in vitro culture. In three hours later, the resulting neurons were treated with MitoTracker Red CMXRos (Life Technologies, NY, USA) for last five minutes to stain mitochondria. An image on the axonal transport of stained neuron mitochondria was taken with a confocal microscope (Leica SP8; Leica microsystems, UK) at an interval of one second for one minute to measure a transport velocity of each mitochondria per second with an IMARIS analysis program (BITPLANE, Zurich, Switzerland).
In result, after setting a section, in which the group treated with amyloid-beta had shown a significant decrease in the transport velocity of mitochondria compared to a vehicle, it was confirmed for 1,3,4-oxadiazole triazol derivative compounds of the present invention, stereoisomers thereof or pharmaceutically acceptable salts thereof that the vehicles is represented as 100%, the amyloid beta treatment group is represented as 0%, a velocity distribution of the compound after normalization is represented as *, 0%˜50%; **, 50%˜100%; ***, >100%.

[2] = human recombinant HDAC1, IC50 calculated with GraphPad Prism
[3] = human recombinant HDAC6, IC50 calculated with GraphPad Prism
[4] = human recombinant HDAC1, Fluor de Lys substrate, 30° C. 60 minutes
[5] = human recombinant HDAC6, same protocol as HDAC1

SMILES | pIC50 (human recombinant HDAC1; [2]) | HDAC6 selectivity (fold) (human recombinant HDAC6; HDAC1 IC50 / HDAC6 IC50) | pIC50 (human recombinant HDAC6; [3]) | pIC50 (human recombinant HDAC1; [4]) | HDAC6 selectivity (fold) (human recombinant HDAC6; HDAC6 over HDAC1) | pIC50 (human recombinant HDAC6; [5]) | Velocity distribution (%) [1]
FC(F)c1nnc(-c2ccc(Cn3cc(-c4cccc(N5CCN(C6CCC6)CC5)c4)nn3)cc2)o1 [Compound 4371, 2-(4-((4-(3-(4-cyclobutylpiperazin-1-yl)phenyl)-1H-1,2,3-triazol-1-yl)methyl)phenyl)-5-(difluoromethyl)-1,3,4-oxadiazole] | < 4.30 | 917 fold | 7.26 |  |  |  | ** (**, 50%˜100%)
Fc1cc(-c2nnc(C(F)F)o2)ccc1Cn1cc(-c2cccc3[nH]ccc23)nn1 [Compound 4079, 2-(4-((4-(1H-indol-4-yl)-1H-1,2,3-triazol-1-yl)methyl)-3-fluorophenyl)-5-(difluoromethyl)-1,3,4-oxadiazole] | < 4.30 | 1992 fold | 7.60 |  |  |  | ** (**, 50%˜100%)
FC(F)c1nnc(-c2ccc(Cn3cc(-c4ccc5[nH]cc(CN6CCOCC6)c5c4)nn3)nc2)o1 [Compound 4187, 4-((5-(1-((5-(5-(difluoromethyl)-1,3,4-oxadiazol-2-yl)pyridin-2-yl)methyl)-1H-1,2,3-triazol-4-yl)-1H-indol-3-yl)methyl)morpholine] | < 4.30 | 5617 fold | 8.05 |  |  |  | * (*, 0%˜50%)
CN1CCN(c2cccc(-c3cn(Cc4ccc(-c5nnc(C(F)F)o5)cn4)nn3)c2)CC1 [Compound 3867, 2-(difluoromethyl)-5-(6-((4-(3-(4-methylpiperazin-1-yl)phenyl)-1H-1,2,3-triazol-1-yl)methyl)pyridin-3-yl)-1,3,4-oxadiazole] | < 4.30 | 1953 fold | 7.59 |  |  |  | ** (**, 50%˜100%)
Fc1cc(-c2nnc(C(F)F)o2)cnc1Cn1cc(-c2ccc(CN3CCCC3)cc2)nn1 [Compound 18058, 2-(difluoromethyl)-5-(5-fluoro-6-((4-(4-(pyrrolidin-1-ylmethyl)phenyl)-1H-1,2,3-triazol-1-yl)methyl)pyridin-3-yl)-1,3,4-oxadiazole] |  |  |  | < 4.30 | 2272 fold | 7.66 | *** (***, >100%)
CC(C)N1CCN(c2cccc(-c3cn(Cc4ccc(-c5nnc(C(F)F)o5)cc4F)nn3)n2)CC1 [Compound 17363, 2-(difluoromethyl)-5-(3-fluoro-4-((4-(6-(4-isopropylpiperazin-1-yl)pyridin-2-yl)-1H-1,2,3-triazol-1-yl)methyl)phenyl)-1,3,4-oxadiazole] |  |  |  | < 4.30 | 2212 fold | 7.65 | ** (**, 50%˜100%)
FC(F)c1nnc(-c2ccc(Cn3cc(-c4cccc5[nH]ncc45)nn3)cc2)o1 [Compound 4347, 2-(4-((4-(1H-indazol-4-yl)-1H-1,2,3-triazol-1-yl)methyl)phenyl)-5-(difluoromethyl)-1,3,4-oxadiazole] | < 4.30 | 6849 fold | 8.14 |  |  |  | * (*, 0%˜50%)
Fc1cc(-c2nnc(C(F)F)o2)ccc1Cn1cc(-c2cccc3[nH]ncc23)nn1 [Compound 4348, 2-(4-((4-(1H-indazol-4-yl)-1H-1,2,3-triazol-1-yl)methyl)-3-fluorophenyl)-5-(difluoromethyl)-1,3,4-oxadiazole] | < 4.30 | 7352 fold | 8.17 |  |  |  | ** (**, 50%˜100%)

Now from value to compound, other results behind:

pIC50 (human recombinant HDAC1; [2]) | HDAC6 selectivity (fold) (human recombinant HDAC6; HDAC1 IC50 / HDAC6 IC50) | pIC50 (human recombinant HDAC6; [3]) | pIC50 (human recombinant HDAC1; [4]) | HDAC6 selectivity (fold) (human recombinant HDAC6; HDAC6 over HDAC1) | pIC50 (human recombinant HDAC6; [5]) | SMILES | Velocity distribution (%) [1]
< 4.30 | 1712 fold | 7.53 |  |  |  | CC(=O)Nc1cccc(-c2cn(Cc3ccc(-c4nnc(C(F)F)o4)cc3F)nn2)c1 [Compound 3775, N-(3-(1-(4-(5-(difluoromethyl)-1,3,4-oxadiazol-2-yl)-2-fluorobenzyl)-1H-1,2,3-triazol-4-yl)phenyl)acetamide] | * (*, 0%˜50%)
< 4.30 | 1612 fold | 7.51 |  |  |  | Fc1ccccc1-c1cn(Cc2ccc(-c3nnc(C(F)F)o3)cn2)nn1 [Compound 3853, 2-(difluoromethyl)-5-(6-((4-(2-fluorophenyl)-1H-1,2,3-triazol-1-yl)methyl)pyridin-3-yl)-1,3,4-oxadiazole] | ** (**, 50%˜100%)
< 4.30 | 2222 fold | 7.65 |  |  |  | O=C(Nc1cccc(-c2cn(Cc3ccc(-c4nnc(C(F)F)o4)cc3F)nn2)c1)C(F)(F)F [Compound 3777, N-(3-(1-(4-(5-(difluoromethyl)-1,3,4-oxadiazol-2-yl)-2-fluorobenzyl)-1H-1,2,3-triazol-4-yl)phenyl)-2,2,2-trifluoroacetamide] | * (*, 0%˜50%)
< 4.30 | 1190 fold | 7.36 |  |  |  | Cn1ccc2ccc(-c3cn(Cc4ccc(-c5nnc(C(F)F)o5)cn4)nn3)cc21 [Compound 3914, 2-(difluoromethyl)-5-(6-((4-(1-methyl-1H-indol-6-yl)-1H-1,2,3-triazol-1-yl)methyl)pyridin-3-yl)-1,3,4-oxadiazole] | * (*, 0%˜50%)
< 4.30 | 1428 fold | 7.46 |  |  |  | Fc1cc(-c2nnc(C(F)F)o2)ccc1Cn1cc(-c2cccc(N3CCN(C4COC4)CC3)c2)nn1 [Compound 4375, 2-(difluoromethyl)-5-(3-fluoro-4-((4-(3-(4-(oxetan-3-yl)piperazin-1-yl)phenyl)-1H-1,2,3-triazol-1-yl)methyl)phenyl)-1,3,4-oxadiazole] | * (*, 0%˜50%)
< 4.30 | 335 fold | 7.83 |  |  |  | CCN1CCN(c2cccc(-c3cn(Cc4ccc(-c5nnc(C(F)F)o5)cc4F)nn3)c2)CC1 [Compound 4373, 2-(difluoromethyl)-5-(4-((4-(3-(4-ethylpiperazin-1-yl)phenyl)-1H-1,2,3-triazol-1-yl)methyl)-3-fluorophenyl)-1,3,4-oxadiazole] | *** (***, >100%)
< 4.30 | 1136 fold | 7.36 |  |  |  | Cc1ccc(-c2cn(Cc3ccc(-c4nnc(C(F)F)o4)cn3)nn2)cc1 [Compound 3738, 2-(difluoromethyl)-5-(6-((4-(p-tolyl)-1H-1,2,3-triazol-1-yl)methyl)pyridin-3-yl)-1,3,4-oxadiazole] | *** (***, >100%)
< 4.30 | 416 fold | 7.92 |  |  |  | Cc1cc2cc(-c3cn(Cc4ccc(-c5nnc(C(F)F)o5)cn4)nn3)ccc2[nH]1 [Compound 4289, 2-(difluoromethyl)-5-(6-((4-(2-methyl-1H-indol-5-yl)-1H-1,2,3-triazol-1-yl)methyl)pyridin-3-yl)-1,3,4-oxadiazole] | *** (***, >100%)
